From ChEMBL document CHEMBL1201862, “PubChem BioAssay data set” (2004)
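Method: 48-hour compound exposure of cells in 96-well plates, five concentrations, linear interpolation of endpoints. Here, GI50 denotes the concentration required for 50% inhibition of growth.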 Activity calls are given as the source filed them. Rule as the data show it: active = GI50 up to about 1.1 µM and inactive = higher.

How the values were obtained:
Experiment in all cases: growth of human tumour cells (NCI), 48 h
M14 = test system: M14
SF-268 = test system: SF-268
A549 = test system: A549
SNB-75 = test system: SNB-75
HL-60 = test system: HL-60
SW-620 = test system: SW-620
SK-MEL-28 = test system: SK-MEL-28
UACC-257 = test system: UACC-257
SF-295 = test system: SF-295
CAKI-1 = test system: CAKI-1
Malme-3M = test system: Malme-3M
NCI-H522 = test system: NCI-H522
OVCAR-3 = test system: OVCAR-3
HOP-92 = test system: HOP-92
SK-MEL-5 = test system: SK-MEL-5
CCRF-CEM = test system: CCRF-CEM
MOLT-4 = test system: MOLT-4
SN12C = test system: SN12C
UO-31 = test system: UO-31
A498 = test system: A498

Structure (SMILES)	GI50 (M14)	GI50 (SF-268)	GI50 (A549)	GI50 (SNB-75)	GI50 (HL-60)	GI50 (SW-620)	GI50 (SK-MEL-28)	GI50 (UACC-257)	GI50 (SF-295)	GI50 (CAKI-1)	GI50 (Malme-3M)	GI50 (NCI-H522)	GI50 (OVCAR-3)	GI50 (HOP-92)	GI50 (SK-MEL-5)	GI50 (CCRF-CEM)	GI50 (MOLT-4)	GI50 (SN12C)	GI50 (UO-31)	GI50 (A498)
Cc1cc(N(CCC#N)S(=O)(=O)c2ccccc2)ccc1/C=N\c1cccc(C(=O)O)c1	> 100 µM (inactive)	60.1 µM (inactive)	> 100 µM (inactive)	35.6 µM (inactive)	> 100 µM (inactive)	> 100 µM (inactive)	> 100 µM (inactive)	> 100 µM (inactive)	> 100 µM (inactive)	> 100 µM (inactive)	> 100 µM (inactive)	> 100 µM (inactive)	> 100 µM (inactive)	> 100 µM (inactive)	83.6 µM (inactive)	> 100 µM (inactive)	> 100 µM (inactive)	> 100 µM (inactive)	53.3 µM (inactive)	
CCOC(=O)CSc1c(C(=O)OCC)c(=O)n(-c2ccccc2)c(=S)n1-c1ccccc1	> 100 µM (inactive)	> 100 µM (inactive)	32.1 µM (inactive)	54.6 µM (inactive)	17.1 µM (inactive)	9.42 µM (inactive)	> 100 µM (inactive)	29.2 µM (inactive)	36.7 µM (inactive)	> 100 µM (inactive)	> 100 µM (inactive)	> 100 µM (inactive)	> 100 µM (inactive)	0.0371 µM (active)	23.5 µM (inactive)	4.92 µM (inactive)	5.61 µM (inactive)	29.6 µM (inactive)	26.9 µM (inactive)	
CCCCc1c2c(nc3c1CCc1cc4cc5c(nc4nc1-3)-c1nc3c(c(CCCC)c1CC5)CCC/C3=C\c1ccccc1)/C(=C/c1ccccc1)CCC2	> 100 µM (inactive)	> 100 µM (inactive)	> 100 µM (inactive)	> 100 µM (inactive)	> 100 µM (inactive)	> 100 µM (inactive)	> 100 µM (inactive)	> 100 µM (inactive)	> 100 µM (inactive)		> 100 µM (inactive)	> 100 µM (inactive)	> 100 µM (inactive)			> 100 µM (inactive)	> 100 µM (inactive)	> 100 µM (inactive)	> 100 µM (inactive)	
Cc1cn(Cc2cnnn2CC2OC(n3cc(C)c(=O)[nH]c3=O)CC2O)c(=O)[nH]c1=O (stereo not drawn)	> 100 µM (inactive)	> 100 µM (inactive)	> 100 µM (inactive)			> 100 µM (inactive)	> 100 µM (inactive)	> 100 µM (inactive)	> 100 µM (inactive)	> 100 µM (inactive)	> 100 µM (inactive)		> 100 µM (inactive)	> 100 µM (inactive)	> 100 µM (inactive)	> 100 µM (inactive)	> 100 µM (inactive)	> 100 µM (inactive)	> 100 µM (inactive)	> 100 µM (inactive)
COc1ccccc1NC(=O)/C(=C/c1ccccc1)C(C)=O	25.2 µM (inactive)	38.4 µM (inactive)	38 µM (inactive)		23.6 µM (inactive)	36.9 µM (inactive)	62.4 µM (inactive)	47 µM (inactive)	27.5 µM (inactive)	35.1 µM (inactive)	27.7 µM (inactive)	25.5 µM (inactive)	38.6 µM (inactive)	45.3 µM (inactive)	22.7 µM (inactive)	29.6 µM (inactive)	30.1 µM (inactive)	42.2 µM (inactive)	56.8 µM (inactive)	
N#Cc1c(-c2ccccc2)cn(C(=O)c2ccccc2)c1N	> 100 µM (inactive)	> 100 µM (inactive)	> 100 µM (inactive)	> 100 µM (inactive)	> 100 µM (inactive)	> 100 µM (inactive)	> 100 µM (inactive)		> 100 µM (inactive)		> 100 µM (inactive)	> 100 µM (inactive)	> 100 µM (inactive)	> 100 µM (inactive)	> 100 µM (inactive)	> 100 µM (inactive)	> 100 µM (inactive)	> 100 µM (inactive)	> 100 µM (inactive)	
CC1(C)CCc2c(ccc(C(=O)/C=C/c3ccc(O)cc3)c2O)O1 [DORSMANNIN A]	10.9 µM (inactive)	12.9 µM (inactive)	11.9 µM (inactive)		19.7 µM (inactive)	13 µM (inactive)	0.201 µM (active)	12.5 µM (inactive)	12.4 µM (inactive)	5.28 µM (inactive)	7.59 µM (inactive)		8.99 µM (inactive)	11.2 µM (inactive)	11.2 µM (inactive)	2.78 µM (inactive)	16.1 µM (inactive)	10.9 µM (inactive)	12.3 µM (inactive)	13.7 µM (inactive)
FC(F)(F)C(C1=NC(C(F)(F)F)(C(F)(F)F)N=C(N2CCOCC2)O1)C(F)(F)F	18.8 µM (inactive)	36.1 µM (inactive)	18.5 µM (inactive)	29.5 µM (inactive)	5.57 µM (inactive)	14.2 µM (inactive)	20.1 µM (inactive)	20.8 µM (inactive)	16 µM (inactive)	23.2 µM (inactive)		20.2 µM (inactive)	25.5 µM (inactive)	25.8 µM (inactive)	11.9 µM (inactive)	4.71 µM (inactive)	28.9 µM (inactive)	11.1 µM (inactive)	25.4 µM (inactive)	
CC1(C)OP(=O)(O)CC1=O	> 100 µM (inactive)	> 100 µM (inactive)	> 100 µM (inactive)			> 100 µM (inactive)	> 100 µM (inactive)	> 100 µM (inactive)	> 100 µM (inactive)	> 100 µM (inactive)	> 100 µM (inactive)	> 100 µM (inactive)	> 100 µM (inactive)	> 100 µM (inactive)	> 100 µM (inactive)			> 100 µM (inactive)	> 100 µM (inactive)	> 100 µM (inactive)
COC1/C=C/C(C)C(C(C)C(OC)C(C)CCC(=O)C(C)C(C/C=C/N(C)C=O)OC)OC(=O)/C=C/C=C(\C)CC(OC)CC2=CC(=O)O[C@H](C2)C(C)C(OC)CC(OC)/C=C/C(C)C(OC)C1 (stereo partly drawn)		0.0336 µM (active)	0.0288 µM (active)	< 0.005 µM (active)		0.00766 µM (active)	0.00875 µM (active)	0.00819 µM (active)	0.00619 µM (active)	< 0.005 µM (active)	0.00966 µM (active)	0.00588 µM (active)		0.0142 µM (active)	0.00518 µM (active)	< 0.005 µM (active)	< 0.005 µM (active)	0.014 µM (active)	0.0125 µM (active)	
CN(C)c1ccc(C2SCC(=O)N2NS(=O)(=O)c2cccc(C(=O)O)c2)cc1 (stereo not drawn)	> 100 µM (inactive)	> 100 µM (inactive)	99.3 µM (inactive)	> 100 µM (inactive)	16.3 µM (inactive)	> 100 µM (inactive)	97.7 µM (inactive)	> 100 µM (inactive)	94 µM (inactive)	> 100 µM (inactive)	99.8 µM (inactive)	28.2 µM (inactive)	> 100 µM (inactive)	> 100 µM (inactive)	> 100 µM (inactive)	0.731 µM (active)	42.8 µM (inactive)	> 100 µM (inactive)	72.8 µM (inactive)	
